# According to patent US5674467A, “Meso-tetraphenylporphyrin complex compounds, process for their production and pharmaceutical agents containing the latter” (Institut fur Diagnostikforschung GmbH, priority 1993, dated 1997):
# Columns and labels:
# [1] = Relaxivity on relaxometer (minispec pc120; 20 MHz; 40° C.); type: physicochemical; conditions: dist. water, pH 7.4, 20 MHz, 0-1 mmol/l
# Experimental: (§1) Determination of Compatibility and Relaxivity of the Compounds According to the Invention
# To determine the relaxivity, the relaxation times of the substances were measured in 4 different concentrations (0-1 mmol/l; dissolved in dist. water; pH 7.4) on a relaxometer (minispec pc120; 20 MHz; 40° C.). The calculation was performed from:
# Δ(1/T1,2 -1/T1,2 blank value)/Δconc.=R1,2
# [2] = Compatibility in mice after i.v. administration, 7-day observation; conditions: mouse, in vivo, iv, 7 days observation, > if all animals tolerated the dose, < if all died
# Experimental: as §1
# The compatibility was examined preliminarily in mice (NMRI, Schering SPF, female, about 25 g). 0.5 mmol/kg of the substance in each case was administered intravenously to a mouse. The animal died, the dose was halved and correspondingly moved, otherwise the corresponding dose was administered to 2 additional mice. The period of observation was 7 days. The compatibility is indicated with > if all animals tolerated the corresponding dose, with < if all died.
# [3] = tested on: implanted tumor and lymph nodes; assay: MR-imaging of VX-2 tumor-bearing rabbits: implanted tumor and lymph nodes; type: in vivo, rabbit; conditions: 0.1 mmol/kg i.v.
# Source text: (§2) MR-Imaging Experiment of Tumor-bearing (VX-2 Carcinoma) Rabbits
# (§3) Siemens magnetom® (1.5 tesla; 64 MHz), T1 -accentuated spin-echo technique: TR : 350 ms, TE : 15 ms. slice orientation: coronary, slice thickness: 3 mm, number of averages: 4 per layer, field of view: 150 mm, matrix: 256^2, 4-6 layers, 1 echo per imaging sequence.
# (§4) Hare rabbit, Wulf, female,=4 kg of body weight (KGW) [n=3].
# (§5) Carcinoma (VX-2), implanted intramuscularly about 3 weeks before the beginning of the test.
# (§6) 0.05 and 0.1 mmol/kg of body weight i.v.
# muscle = assay: MR-imaging of VX-2 tumor-bearing rabbits: muscle; type: in vivo, rabbit; conditions: 0.1 mmol/kg i.v.
# Source text: as §2, §3, §4, §5, §6
# VX-2 carcinoma = assay: MR-imaging of VX-2 tumor-bearing rabbits: VX-2 carcinoma; type: in vivo, rabbit; conditions: 0.1 mmol/kg i.v.
# Source text: as §2, §3, §4, §5, §6
# lymph nodes (iliacal) = assay: MR-imaging of VX-2 tumor-bearing rabbits: lymph nodes (iliacal); type: in vivo, rabbit; conditions: 0.1 mmol/kg i.v.
# Source text: as §2, §3, §4, §5, §6
# lymph node metastasis = assay: MR-imaging of VX-2 tumor-bearing rabbits: lymph node metastasis; type: in vivo, rabbit; conditions: 0.1 mmol/kg i.v.
# Source text: as §2, §3, §4, §5, §6
# [4] = 0 min p.i. (precontrast set to 1)
compound,measurement,setting,value
CC(=O)[O-].COc1ccc(-c2c3nc(c(-c4ccc(OC)c(S(=O)(=O)[O-])c4)c4ccc([nH]4)c(-c4ccc(OC)c(S(=O)(=O)[O-])c4)c4nc(c(-c5ccc(OC)c(S(=O)(=O)[O-])c5)c5ccc2[nH]5)C=C4)C=C3)cc1S(=O)(=O)[O-].[Mn+3].[Na+].[Na+].[Na+].[Na+] [Example 17 from EP 0336 879 A1],Relaxivity R1,[1],9.2 I/mmol/s
"Manganese (III){5,10,15,20tetrakis-{[4carboxylic acid(2,3-dihydroxy-1-hydroxymethylpropyl)-amidephenylporphyrinacetate [Example 2 from EP 0336 879 A1]",Relaxivity R1,[1],8.6 I/mmol/s
CC(=O)[O-].O=C([O-])c1cccc(-c2c3nc(c(-c4cccc(C(=O)[O-])c4)c4ccc([nH]4)c(-c4cccc(C(=O)[O-])c4)c4nc(c(-c5cccc(C(=O)[O-])c5)c5ccc2[nH]5)C=C4)C=C3)c1.[Mn+3] [Example 4 from EP 0336 879 A1],Relaxivity R1,[1],8.8 I/mmol/s
"O=C(O)COc1cccc(-c2c3nc(c(-c4cccc(OCC(=O)O)c4)c4ccc([nH]4)c(-c4cccc(OCC(=O)O)c4)c4nc(c(-c5cccc(OCC(=O)O)c5)c5ccc2[nH]5)C=C4)C=C3)c1.[Cl-].[Cl-].[Cl-].[Mn+3] [Example 2c, Manganese(III)-{5,10,15,20-tetrakis-[3-(carboxymethoxy)-phenyl]-porphyrin}-chloride]",MTD at 168 h,[2],> 500 µmol/kg
same,Relaxivity R1,[1],13 I/mmol/s
"CC(=O)[O-].CC(=O)[O-].CC(=O)[O-].CCOC(=O)COc1ccc(-c2c3nc(c(-c4ccc(OCC(=O)OCC)c(OCC(=O)OCC)c4)c4ccc([nH]4)c(-c4ccc(OCC(=O)OCC)c(OCC(=O)OCC)c4)c4nc(c(-c5ccc(OCC(=O)OCC)c(OCC(=O)OCC)c5)c5ccc2[nH]5)C=C4)C=C3)cc1OCC(=O)OCC.[Mn+3] [Example 4c, Manganese(III)-{5,10,15,20-tetrakis-[3,4-bis-(ethoxycarbonylmethoxy)-phenyl]-porphyrin}-acetate]",MTD at 168 h,[2],≥ 500 µmol/kg
same,Relaxivity R1,[1],11.6 I/mmol/s
Gd-DTPA,enhancement of tumors or metastases after about 60-90 minutes,[3],almost no enhancement of tumors or metastases was observed any longer
same,signal rise in implanted tumor and lymph nodes,[3]; lymph nodes on tumor-bearing and tumor-free side (iliacal and popliteal),"only in a brief, small signal rise"
same,time until approximately the starting intensity was reached again,"[3]; virtually all examined tissues, within about",60 to 90 min
same,"Relative signal intensity, muscle",muscle; [4],1.00
same,"Relative signal intensity, muscle",muscle; 2 min p.i.,1.20
same,"Relative signal intensity, muscle",muscle; 8 min p.i.,1.11
same,"Relative signal intensity, muscle",muscle; 17 min p.i.,1.10
same,"Relative signal intensity, muscle",muscle; 42 min p.i.,1.07
same,"Relative signal intensity, muscle",muscle; 52 min p.i.,1.02
same,"Relative signal intensity, muscle",muscle; 69 min p.i.,1.08
same,"Relative signal intensity, muscle",muscle; 24 hours p.i.,1.04
same,"Relative signal intensity, VX-2 carcinoma",VX-2 carcinoma; [4],1.00
same,"Relative signal intensity, VX-2 carcinoma",VX-2 carcinoma; 2 min p.i.,1.50
same,"Relative signal intensity, VX-2 carcinoma",VX-2 carcinoma; 8 min p.i.,1.50
same,"Relative signal intensity, VX-2 carcinoma",VX-2 carcinoma; 17 min p.i.,1.48
same,"Relative signal intensity, VX-2 carcinoma",VX-2 carcinoma; 42 min p.i.,1.47
same,"Relative signal intensity, VX-2 carcinoma",VX-2 carcinoma; 52 min p.i.,1.42
same,"Relative signal intensity, VX-2 carcinoma",VX-2 carcinoma; 69 min p.i.,1.40
same,"Relative signal intensity, VX-2 carcinoma",VX-2 carcinoma; 24 hours p.i.,1.11
same,"Relative signal intensity, lymph nodes (iliacal)",lymph nodes (iliacal); [4],1.00
same,"Relative signal intensity, lymph nodes (iliacal)",lymph nodes (iliacal); 2 min p.i.,1.50
same,"Relative signal intensity, lymph nodes (iliacal)",lymph nodes (iliacal); 8 min p.i.,1.32
same,"Relative signal intensity, lymph nodes (iliacal)",lymph nodes (iliacal); 17 min p.i.,1.20
same,"Relative signal intensity, lymph nodes (iliacal)",lymph nodes (iliacal); 42 min p.i.,1.24
same,"Relative signal intensity, lymph nodes (iliacal)",lymph nodes (iliacal); 52 min p.i.,1.17
same,"Relative signal intensity, lymph nodes (iliacal)",lymph nodes (iliacal); 69 min p.i.,1.11
same,"Relative signal intensity, lymph nodes (iliacal)",lymph nodes (iliacal); 24 hours p.i.,1.14
same,"Relative signal intensity, lymph node metastasis",lymph node metastasis; [4],1.00
same,"Relative signal intensity, lymph node metastasis",lymph node metastasis; 2 min p.i.,1.61
same,"Relative signal intensity, lymph node metastasis",lymph node metastasis; 8 min p.i.,1.44
same,"Relative signal intensity, lymph node metastasis",lymph node metastasis; 17 min p.i.,1.36
same,"Relative signal intensity, lymph node metastasis",lymph node metastasis; 42 min p.i.,1.29
same,"Relative signal intensity, lymph node metastasis",lymph node metastasis; 52 min p.i.,1.20
same,"Relative signal intensity, lymph node metastasis",lymph node metastasis; 69 min p.i.,1.25
same,"Relative signal intensity, lymph node metastasis",lymph node metastasis; 24 hours p.i.,0.97
